Data: article PMC10788925 (Journal of Medicinal Chemistry, 2023)

How the values were obtained:
RVFV strain MP-12 = assay: microbe, parasite or virus in culture; type: cell-based; conditions: Rift Valley fever virus
in vitro [1] = conditions: human
in vitro [2] = assay: in vitro
Huh-7 cells = conditions: human
Vero E6 cells = conditions: African green monkey (Chlorocebus sp.)
CHIKV LR2006-OPY1 = assay: microbe, parasite or virus in culture; type: cell-based; conditions: Chikungunya virus
in vitro [3] = conditions: human; remark: listed apart in the source
HEV-3 replicon p6-Gluc = assay: microbe, parasite or virus in culture; type: cell-based, Hepatitis E virus; conditions: for EC50 / EC90: Hepatitis E virus
SARS-CoV-2 = assay: microbe, parasite or virus in culture; type: cell-based
[4] = Severe acute respiratory syndrome coronavirus 2, Vero C1008, 24 h
[5] = Severe acute respiratory syndrome coronavirus 2, Vero C1008, 48 h

Structure (SMILES): COC(=O)[C@H]1[C@@H](O)[C@@]2(O)c3c(OC)cc(Br)cc3O[C@@]2(c2ccc(OC)cc2)[C@@H]1c1ccccc1 (racemic) [9m, (±)-Methyl (1R,2R,3S,3aR,8bS)-6-bromo-1,8b-dihydroxy-8-methoxy-3a-(4-methoxyphenyl)-3-phenyl-2,3,3a,8b-tetrahydro-1H-cyclopenta[b]benzofuran-2-carboxylate]
- EC50 (RVFV strain MP-12; Vero C1008, 24 h): 26.6 nM
- EC90 (RVFV strain MP-12; Vero C1008, 24 h): 39.4 nM
- EC50 (RVFV strain MP-12; Vero C1008, 48 h): 43.3 nM
- EC90 (RVFV strain MP-12; Vero C1008, 48 h): 53.2 nM
- CC50 (in vitro [1]): > 1000 nM
- CC50 (in vitro [2]; African green monkey (Chlorocebus sp.)): > 1000 nM
- CC50 (in vitro [2]; chlorocebus sabaeus, CC50): > 1000 nM
- CC50 (Huh-7 cells): > 1000 nM
- cell viability at higher cell density (HepG2 cells): improved
- CC50 (Vero E6 cells): > 1000 nM
- EC50 (CHIKV LR2006-OPY1; Huh-7, 24 h): 2.1 nM
- EC90 (CHIKV LR2006-OPY1; Huh-7, 24 h): 12.3 nM
- EC50 (CHIKV LR2006-OPY1; Huh-7, 48 h): 2.9 nM
- EC90 (CHIKV LR2006-OPY1; Huh-7, 48 h): 9.8 nM
- CC50 at 24 h (in vitro [3]): 421 nM
- CC50 at 48 h (in vitro [3]): 13.8 nM
- antiviral response at higher cell density (HEV-3 replicon p6-Gluc): decreased
- EC50 (HEV-3 replicon p6-Gluc; HepG2, 24 h): 3.1 nM
- EC90 (HEV-3 replicon p6-Gluc; HepG2, 24 h): 40.7 nM
- EC50 (HEV-3 replicon p6-Gluc; HepG2, 48 h): 1.4 nM
- EC90 (HEV-3 replicon p6-Gluc; HepG2, 48 h): 30.6 nM
- EC50 (SARS-CoV-2; [4]): 33.9 nM
- EC90 (SARS-CoV-2; [4]): 40.4 nM
- EC50 (SARS-CoV-2; [5]): 47.8 nM
- EC90 (SARS-CoV-2; [5]): 80 nM
